Assay results: US8969394B2, “Thiophenecarboxamide derivatives as EP4 receptor ligands” (Merck Frosst Canada Ltd., priority 2006, dated 2015)

Biological target: EP4 receptor (Homo sapiens (Human), UniProt P35408)
Experiment: Prostanoid receptor binding assay, hEP4 (membranes of transfected HEK 293(ebna) cells)
Settings: radioligand binding, HEK 293(ebna) membranes, 10 mM MES/KOH pH 6.0
Protocol: Prostanoid receptor cDNAs corresponding to full length coding sequences are subcloned into the appropriate sites of mammalian expression vectors and transfected into HEK 293(ebna) cells. HEK 293(ebna) cells expressing the individual cDNAs are grown under selection and individual colonies are isolated after 2-3 weeks of growth using the cloning ring method and subsequently expanded into clonal cell lines.
Transfected HEK 293(ebna) cells are maintained in culture, harvested and membranes are prepared by differential centrifugation, following lysis of the cells in the presence of protease inhibitors, for use in receptor binding assays. Prostanoid receptor binding assays (for DP1, DP2 (CRTH2), EP1, EP2, EP3-III, EP4, FP, IP, and TP) are performed in 10 mM MES/KOH (pH 6.0) (EPs, FP and TP) or 10 mM HEPES/KOH (pH 7.4) (DPs and IP), containing 1 mM EDTA, 2.5-30 mM divalent cation and the appropriate radioligand. Synthetic compounds are added in dimethylsulfoxide which is kept constant at 1% (v/v) in all incubations. The reaction is initiated by addition of membrane protein. Non-specific binding is determined in the presence of 10 μM of the corresponding non-radioactive prostanoid. Incubations are conducted for 60-90 min at room temperature or 30° C. and terminated by rapid filtration. Specific binding is calculated by subtracting non specific binding from total binding. The residual specific binding at each ligand concentration is calculated and expressed as a function of ligand concentration in order to construct sigmoidal concentration-response curves. The binding affinity of the compounds is determined by calculating the equilibrium inhibition constant (Ki) from the equation Ki=InPt/1+[radioligand]/Kd where Kd is the equilibrium dissociation constant for the radioligand:receptor interaction and InPt is the inflection point of the dose-response curves.

Sequence of EP4 receptor (P35408 whole entry): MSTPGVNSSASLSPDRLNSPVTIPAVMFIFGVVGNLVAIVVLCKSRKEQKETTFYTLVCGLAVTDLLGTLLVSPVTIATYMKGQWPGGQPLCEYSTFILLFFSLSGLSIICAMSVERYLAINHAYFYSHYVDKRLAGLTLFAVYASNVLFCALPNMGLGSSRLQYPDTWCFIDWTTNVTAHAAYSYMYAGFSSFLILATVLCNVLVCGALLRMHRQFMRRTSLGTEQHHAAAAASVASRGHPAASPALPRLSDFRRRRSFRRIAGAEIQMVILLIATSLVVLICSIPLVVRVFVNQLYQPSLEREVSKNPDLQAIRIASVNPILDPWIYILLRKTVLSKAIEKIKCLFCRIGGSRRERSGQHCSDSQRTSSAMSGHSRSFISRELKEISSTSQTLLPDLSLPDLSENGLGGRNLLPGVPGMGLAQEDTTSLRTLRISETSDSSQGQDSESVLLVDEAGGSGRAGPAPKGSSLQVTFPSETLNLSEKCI

Structure (SMILES)	Ki [nM]
C[C@H](NC(=O)c1csc(Br)c1Cc1cccc(Cl)c1)c1ccc(C(=O)O)cc1 [Example 4, 4-[(1S)-1-({[5-bromo-4-(3-chlorobenzyl)-3-thienyl]carbonyl}amino)ethyl]benzoic acid]	0.71 ± 0.01
COC(=O)c1ccc([C@H](C)NC(=O)c2c(Cl)sc(Cl)c2Cc2cccc(Cl)c2)cc1 [Example 6, methyl 4-[(1S)-1-({[2,5-dichloro-4-(3-chlorobenzyl)-3-thienyl]carbonyl}amino)ethyl]benzoate]	124
C[C@H](NC(=O)c1c(Cl)sc(Cl)c1Cc1cccc(Cl)c1)c1ccc(C(=O)O)cc1 [Example 7, 4-[(1S)-1-({[2,5-dichloro-4-(3-chlorobenzyl)-3-thienyl]carbonyl}amino)ethyl]benzoic acid]	1.3 ± 0.6
C[C@H](NC(=O)c1c(Cl)sc(Cl)c1C(OC1CCCCO1)c1cccc(Cl)c1)c1ccc(C(=O)O)cc1 (stereo partly drawn) [Example 8]	51
Cc1sc(C)c(C(=O)N[C@@H](C)c2ccc(C(=O)O)cc2)c1Cc1ccc(C(F)(F)F)cc1 [Example 12, 4-{(1S)-1-[({2,5-dimethyl-4-[4-(trifluoromethyl)benzyl]-3-thienyl}carbonyl)amino]ethyl}benzoic acid]	1.4 ± 0.4
Cc1sc(C)c(C(=O)NC2(c3ccc(C(=O)O)cc3)CC2)c1Cc1ccc(C(F)(F)F)cc1 [Example 16, 4-{1-[({2,5-dimethyl-4-[4-(trifluoromethyl)benzyl]-3-thienyl}carbonyl)amino]cyclopropyl}benzoic acid]	0.5 ± 0.1
C[C@H](NC(=O)c1c(Cl)sc(Cl)c1Cc1cccc(C(F)(F)F)c1)c1ccc(C(=O)O)cc1 [Example 21, 4-{(1S)-1-[({2,5-dichloro-4-[3-(trifluoromethyl)benzyl]-3-thienyl}carbonyl)-amino]ethyl}benzoic acid]	0.8 ± 0.2
O=C(O)c1ccc(CNC(=O)c2c(Cl)sc(Cl)c2Cc2cccc(Cl)c2)cc1 [Example 22, 4-[({[2,5-dichloro-4-(3-chlorobenzyl)-3-thienyl]carbonyl}amino)-methyl]benzoic acid]	0.9 ± 0.1
Cc1sc(C)c(C(=O)N[C@@H](C)c2ccc(C(=O)O)cc2)c1Cc1cccc(Cl)c1 [Example 23, 4-[(1S)-1-({[4-(3-chlorobenzyl)-2,5-dimethyl-3-thienyl]carbonyl}amino)-ethyl]benzoic acid]	3.1 ± 0.4
Cc1sc(C)c(C(=O)NC2(c3ccc(-c4nn[nH]n4)cc3)CC2)c1Cc1cccc(C(F)(F)F)c1 [Example 26, 2,5-dimethyl-N-{1-[4-(2H-tetrazol-5-yl)phenyl]cyclopropyl}-4-[3-(trifluoromethyl)benzyl]thiophene-3-carboxamide]	0.7 ± 0.2
Cc1sc(C)c(C(=O)N[C@@H](C)c2ccc(C(=O)O)cc2)c1Cc1ccc(Cl)cc1 [Example 30, 4-[(1S)-1-({[4-(4-chlorobenzyl)-2,5-dimethyl-3-thienyl]carbonyl}amino)-ethyl]benzoic acid]	3.4 ± 0.2

The remaining compounds from weak to strong by Ki, led by results:

Ki [nM]	Structure (SMILES)
308	Cc1sc(C)c(C(=O)N[C@@H](C)c2ccc(C(=O)NS(C)(=O)=O)cc2)c1Cc1ccc(C(F)(F)F)cc1 [Example 18, 2,5-dimethyl-N-[(1S)-1-(4-{[(methylsulfonyl)amino]carbonyl}phenyl)ethyl]-4-[4-(trifluoromethyl)benzyl]thiophene-3-carboxamide]
133	Cc1sc(C)c(C(=O)N[C@@H](C)c2ccc(C(=O)NS(=O)(=O)c3ccccc3)cc2)c1Cc1ccc(C(F)(F)F)cc1 [Example 19, 2,5-dimethyl-N-[(1S)-1-(4-{[(phenylsulfonyl)amino]carbonyl}phenyl)ethyl]-4-[4-(trifluoromethyl)benzyl]thiophene-3-carboxamide]
30	Cc1sc(C)c(C(=O)NCc2ccc(C(=O)O)c(Cl)c2)c1Cc1cccc(Cl)c1 [Example 25, 2-chloro-4-[({[4-(3-chlorobenzyl)-2,5-dimethyl-3-thienyl]carbonyl}amino)-methyl]benzoic acid]
7.9 ± 0.6	C[C@H](NC(=O)c1cscc1Cc1cccc(Cl)c1)c1ccc(C(=O)O)cc1 [Example 3, 4-[(1S)-1-({[4-(3-chlorobenzyl)-3-thienyl]carbonyl}amino)ethyl]benzoic acid]
7.4 ± 1.3	C[C@H](NC(=O)c1c(Cl)sc(Cl)c1C(=O)c1cccc(Cl)c1)c1ccc(C(=O)O)cc1 [Example 10, 4-[(1S)-1-({[2,5-dichloro-4-(3-chlorobenzoyl)-3-thienyl]carbonyl}amino)ethyl]benzoic acid]
5.2 ± 1.1	CC(NC(=O)c1sc(Cl)cc1Cc1cccc(Cl)c1)c1ccc(C(=O)O)cc1 (stereo not drawn) [Example 1, 4-[1-({[5-chloro-3-(3-chlorobenzyl)-2-thienyl]carbonyl}amino)ethyl]-benzoic acid]
2.6 ± 0.6	CC(NC(=O)c1sc(Cl)cc1Cc1cccc(Cl)c1)c1ccc(-c2nn[nH]n2)cc1 (stereo not drawn) [Example 2, 5-chloro-3-(3-chlorobenzyl)-N-{1-[4-(1H-tetrazol-5-yl)phenyl]ethyl}-thiophene-2-carboxamide]
2.4 ± 0.2	Cc1sc(C)c(C(=O)N[C@@H](C)c2ccc(C(=O)O)cc2)c1Cc1cccc(C(F)(F)F)c1 [Example 24, 4-{(1S)-1-[({2,5-dimethyl-4-[3-(trifluoromethyl)benzyl]-3-thienyl}carbonyl)-amino]ethyl}benzoic acid]
1.8	C[C@H](NC(=O)c1c(Cl)sc(Cl)c1C(O)c1cccc(Cl)c1)c1ccc(C(=O)O)cc1 (stereo partly drawn) [Example 9, 4-{(1S)-1-[({2,5-dichloro-4-[(3-chlorophenyl)(hydroxy)methyl]-3-thienyl}carbonyl)amino]ethyl}benzoic acid]
0.9 ± 0.2	C[C@@H](NC(=O)c1c(Cl)sc(Cl)c1Cc1cccc(Cl)c1)c1ccc(C(=O)O)cc1 [Example 20, 4-[(1R)-1-({[2,5-dichloro-4-(3-chlorobenzyl)-3-thienyl]carbonyl}amino)-ethyl]benzoic acid]
0.8 ± 0.2	Cc1sc(C)c(C(=O)NC2(c3ccc(C(=O)O)cc3)CC2)c1Cc1cccc(C(F)(F)F)c1 [Example 28, 4-{1-[({2,5-dimethyl-4-[3-(trifluoromethyl)benzyl]-3-thienyl}carbonyl)-amino]cyclopropyl}benzoic acid]
0.6 ± 0.1	Cc1sc(C)c(C(=O)NC2(c3ccc(-c4nn[nH]n4)cc3)CC2)c1Cc1ccc(C(F)(F)F)cc1 [Example 14, 2,5-dimethyl-N-{1-[4-(2H-tetrazol-5-yl)phenyl]cyclopropyl}-4-[4-(trifluoromethyl)benzyl]thiophene-3-carboxamide]
0.47 ± 0.01	C[C@H](NC(=O)c1c(Br)sc(Br)c1Cc1cccc(Cl)c1)c1ccc(C(=O)O)cc1 [Example 5, 4-[(1S)-1-({[2,5-dibromo-4-(3-chlorobenzyl)-3-thienyl]carbonyl}amino)ethyl]benzoic acid]
